Like-named read-outs stand apart in the source and are kept apart here.

The data set is described as follows: log P determination by HPLC on reversed-phase columns (C 18), analogously to OECD Guideline 117. It counts as physicochemical. Particulars: for chromatographic logP: reversed-phase C18 HPLC column; for logP (HCOOH): LC-MS in the acidic range, pH 2.7, 0.1% aqueous formic acid / acetonitrile; for logP (HCOOH) / logP (neutral): HPLC reversed-phase C 18; for logP (neutral): LC-MS in the neutral range, pH 7.8, 0.001 molar aqueous ammonium hydrogencarbonate / acetonitrile. As for the experimental part:
The log P values were determined analogously to OECD Guideline 117 (EC Directive 92/69/EEC) by HPLC (high-performance liquid chromatography) using reversed-phase columns (C 18), by the following methods:
[a] The LC-MS determination in the acidic range was effected at pH 2.7 with 0.1% aqueous formic acid and acetonitrile (contains 0.1% formic acid) as eluents; linear gradient from 10% acetonitrile to 95% acetonitrile. log P^[a] is also referred to as log P(HCOOH). [b] LC-MS determination in the neutral range was effected at pH 7.8 with 0.001 molar aqueous ammonium hydrogencarbonate solution and acetonitrile as eluents; linear gradient from 10% acetonitrile to 95% acetonitrile. log P^[…] is also referred to as log P(neutral).

Setting [1] is: acidic range, pH 2.7, 0.1% aqueous formic acid and acetonitrile, read-out: log P[a] / log P(HCOOH).
The mark [2] stands for this setting: neutral range, pH 7.8, 0.001 molar aqueous ammonium hydrogencarbonate and acetonitrile, read-out: log P[b] / log P(neutral).

For `CCn1[nH]c(=O)n(C(C)C)c1=O` [drawing 120 R1=CH2CH3 R10=CH(CH3)2, 1-ethyl-4-isopropyl-1,2,4-triazolidine-3,5-dione], under setting [1], the chromatographic logP was found to be 0.62. Turning to `Cc1cc(F)c(-n2c(=O)n(C)c(=O)n2-c2cc(F)c(C#N)cc2F)cc1SCC(F)(F)F` [Example 78], the “logP (HCOOH)” value turned out to be 3.40 and the “logP (neutral)” value was 3.29. With `CC1(C)OB(c2ccc(Cl)c(SCC(F)(F)F)c2)OC1(C)C` [2-{4-Chloro-3-[(2,2,2-trifluoroethyl)sulfanyl]phenyl}-4,4,5,5-tetramethyl-1,3,2-dioxaborolane], the chromatographic logP reads like this: under setting [1], 5.27; under setting [2], 5.16. For `Cc1cc(F)c(-n2c(=O)n(C(C)C)c(=O)n2C(C)(C)C)cc1[S+]([O-])CC(F)(F)F` (racemic) [Example 152], the “logP (HCOOH)” value is given as 3.40 and the “logP (neutral)” value is 3.35.

As for `CCC(C)n1[nH]c(=O)n(C2CC2)c1=O` (stereo not drawn) [drawing 120 R1=CH(CH3)CH2CH3 R10=cyclopropyl, 1-sec-butyl-4-cyclopropyl-1,2,4-triazolidine-3,5-dione], the chromatographic logP under setting [1] stood at 0.82. Still for that read-out and setting: the result for `CCn1[nH]c(=O)n(C(C)(C)C)c1=O` [drawing 120 R1=CH2CH3 R10=C(CH3)3, 4-tert-butyl-1-ethyl-1,2,4-triazolidine-3,5-dione] reads 1.15. The same measure, in the same setting: the result for `CCn1[nH]c(=O)n(-c2ccccc2)c1=O` [1-Ethyl-4-phenyl-1,2,4-triazolidine-3,5-dione] reads 0.91; that for `Cc1cc(F)c(-n2c(=O)[nH]n(C)c2=O)cc1SCC(F)(F)F` [4-[2-Fluoro-4-methyl-5-[(2,2,2-trifluoroethyl)sulfanyl]phenyl]-1-methyl-1,2,4-triazolidine-3,5-dione], 2.02. On to `Cc1cc(F)c(-n2c(=O)n(C(C)C)c(=O)n2CC(C)C)cc1SCC(F)(F)F` [Example 149], for which the “logP (HCOOH)” value stood at 4.27 and the “logP (neutral)” value is reported as 4.21. Take `Fc1cc(F)c(SCC(F)(F)F)cc1Br` [VIIa-15, 1-Bromo-2,4-difluoro-5-[(2,2,2-trifluoroethyl)sulfanyl]benzene]: the chromatographic logP is, setting by setting: under setting [1], 3.89; under setting [2], 3.86.

In the case of `COc1ccc(B(O)O)cc1SCC(F)(F)F` [VIIIa-8, {4-Methoxy-3-[(2,2,2-trifluoroethyl)sulfanyl]phenyl}boronic acid], the chromatographic logP under setting [1] worked out at 1.94 and the chromatographic logP under setting [2] is 1.93. For `CC(C)Cn1[nH]c(=O)n(C2CC2)c1=O` [drawing 120 R1=CH2CH(CH3)2 R10=cyclopropyl, 4-cyclopropyl-1-isobutyl-1,2,4-triazolidine-3,5-dione], under setting [1], the chromatographic logP is 0.94. For the compound `[O-][S+](CC(F)(F)F)c1cc(B(O)O)ccc1Cl` (stereo not drawn) [VIIIb-3, {4-Chloro-3-[(2,2,2-trifluoroethyl)sulfinyl]phenyl}boronic acid], the chromatographic logP by setting is: under setting [1], 1.74; under setting [2], 1.68.

Turning to `COc1n[nH]c(=O)n1C1CC1` [drawing 121 R1=CH3 R10=cyclopropyl, 4-cyclopropyl-5-methoxy-2,4-dihydro-3H-1,2,4-triazol-3-one], the chromatographic logP under setting [1] worked out at 0.27 and the chromatographic logP under setting [2] stood at 0.31. In the same order, the values of `Cc1cc(C)c(B2OC(C)(C)C(C)(C)O2)cc1SCC(F)(F)F` [2-{2,4-Dimethyl-5-[(2,2,2-trifluoroethyl)sulfanyl]phenyl}-4,4,5,5-tetramethyl-1,3,2-dioxaborolane] are 5.75 and 5.64.

For the compound `Cc1cc(F)c(N2C(=O)C(=O)N(C3CC3)C2=O)cc1SCC(F)(F)F` [Example 102], the “logP (HCOOH)” value worked out at 3.24. Regarding `Cn1[nH]c(=O)n(C(C)(C)C)c1=O` [drawing 120 R1=CH3 R10=C(CH3)3, 4-tert-butyl-1-methyl-1,2,4-triazolidine-3,5-dione], under setting [1], the chromatographic logP stood at 0.83. On the same count and under the same terms, the result for `CC(C)n1[nH]c(=O)n(C)c1=O` [drawing 120 R1=CH(CH3)2 R10=CH3, 1-isopropyl-4-methyl-1,2,4-triazolidine-3,5-dione] reads 0.12.

Turning to `Cc1cc(F)c(-n2c(=S)n(C3CC3)c(=O)n2C)cc1SCC(F)(F)F` [4-cyclopropyl-1-{2-fluoro-4-methyl-5-[(2,2,2-trifluoroethyl)sulfanyl]phenyl}-2-methyl-5-thioxo-1,2,4-triazolidin-3-one], the chromatographic logP runs as follows: under setting [1], 3.24; under setting [2], 3.18. Take `Cc1cc(F)c(NC(=S)NCC(F)(F)F)cc1SCC(F)(F)F` [1-{2-Fluoro-4-methyl-5-[(2,2,2-trifluoroethyl)sulfanyl]phenyl}-3-(2,2,2-trifluoroethyl)thiourea]: the chromatographic logP was 3.32 under setting [1] and 3.24 under setting [2]. The matching figures for `OB(O)c1cc(SCC(F)(F)F)c(Cl)cc1Cl` [VIIIa-6, {2,4-Dichloro-5-[(2,2,2-trifluoroethyl)sulfanyl]phenyl}boronic acid]: 2.61 and 2.52. On to `Cn1c(=O)n(C2CC2)c(=O)n1-c1cc(SCC(F)(F)F)c(F)cc1F` [Example 71], for which the “logP (HCOOH)” value is reported as 2.67 and the “logP (neutral)” value is reported as 2.62. Turning to `Cn1c(=O)[nH]n(C2CCCC2)c1=O` [drawing 120 R1=cyclopentyl R10=CH3, 1-cyclopentyl-4-methyl-1,2,4-triazolidine-3,5-dione], under setting [1], the chromatographic logP is 0.78. With `Fc1cc(Cl)c(SCC(F)(F)F)cc1Br` [VIIa-2, 1-Bromo-4-chloro-2-fluoro-5-[(2,2,2-trifluoroethyl)sulfanyl]benzene], the chromatographic logP turned out to be 4.28 under setting [1] and 4.29 under setting [2]. For the compound `CCn1c(=O)n(CC(C)C)n(-c2cc(SCC(F)(F)F)c(C)cc2F)c1=O` [Example 148], the “logP (HCOOH)” value is given as 3.82 and the “logP (neutral)” value came out at 3.78. With `Fc1cc(Br)c(SCC(F)(F)F)cc1Br` [VIIa-14, 1,4-Dibromo-2-fluoro-5-[(2,2,2-trifluoroethyl)sulfanyl]benzene], the chromatographic logP worked out at 4.39 under setting [1] and 4.36 under setting [2]. As to `Cc1cc(F)c(-n2c(=O)[nH][nH]c2=O)cc1SCC(F)(F)F` [4-{2-Fluoro-4-methyl-5-[(2,2,2-trifluoroethyl)sulfanyl]phenyl}-1,2,4-triazolidine-3,5-dione], the chromatographic logP under setting [1] is 1.82. Turning to `FC(F)(F)CSc1cc(Br)ccc1Br` [VIIa-13, 1,4-Dibromo-2-[(2,2,2-trifluoroethyl)sulfanyl]benzene], the chromatographic logP runs as follows: under setting [1], 4.29; under setting [2], 4.25. In the same order, the values of `C=CCn1c(OC)n[nH]c1=O` [drawing 121 R1=CH3 R10=CH2CH═CH2, 4-allyl-5-methoxy-2,4-dihydro-3H-1,2,4-triazol-3-one] are 0.45 and 0.47. As to `Cc1cc(F)c(-n2c(=O)n(C)c(=O)n2C2C=CCCC2)cc1[S+]([O-])CC(F)(F)F` (stereo not drawn) [Example 96], the “logP (HCOOH)” value is reported as 2.66 and the “logP (neutral)” value is given as 2.61. Regarding `CCn1c(=O)n(-c2cc([S+]([O-])CC(F)(F)F)c(C)cc2F)c(=O)n1CC` (stereo not drawn) [Example 119, 1,2-Diethyl-4-{2-fluoro-4-methyl-5-[(2,2,2-trifluoroethyl)sulfinyl]phenyl}-1,2,4-triazolidine-3,5-dione], under setting [1], the chromatographic logP was 2.07. With `CCn1c(=O)n(-c2ccccc2)c(=O)n1-c1cc([S+]([O-])CC(F)(F)F)c(C)cc1F` (stereo not drawn) [Example 88, 1-Ethyl-2-{2-fluoro-4-methyl-5-[(2,2,2-trifluoroethyl)sulfinyl]phenyl}-4-phenyl-1,2,4-triazolidine-3,5-dione], the chromatographic logP was found to be 2.71 under setting [1] and 2.66 under setting [2]. `Cc1cc(F)c(-n2[nH]c(=O)n(-c3cccc(C(F)(F)F)c3)c2=O)cc1[S+]([O-])CC(F)(F)F` (racemic) [Example 158]: the “logP (HCOOH)” value is reported as 2.69 and the “logP (neutral)” value came out at 1.10. As to `CCn1c(=O)n(C(C)C)c(=O)n1-c1cc([S+]([O-])CC(F)(F)F)c(C)cc1F` (stereo not drawn) [Example 93], the “logP (HCOOH)” value stood at 2.58 and the “logP (neutral)” value was found to be 2.54. `Cc1cc(F)c(NC(=O)C(C)(C)O)cc1SCC(F)(F)F` [N-[2-Fluoro-4-methyl-5-(2,2,2-trifluoroethylsulfanyl)phenyl]-2-hydroxy-2-methylpropanamide]: under setting [1], the chromatographic logP turned out to be 2.81. For the compound `CCC(C)n1c(=O)n(C2CC2)c(=O)n1-c1cc(SCC(F)(F)F)c(C)cc1F` (stereo not drawn) [Example 73], the “logP (HCOOH)” value is 3.86 and the “logP (neutral)” value is 3.72. For the compound `Cc1cc(C)c([S+]([O-])CC(F)(F)F)cc1N1CCNC1=O` (stereo not drawn) [Example 4, 1-{2,4-Dimethyl-5-[(2,2,2-trifluoroethyl)sulfinyl]phenyl}imidazolidin-2-one], the chromatographic logP was found to be 1.51 under setting [1] and 1.52 under setting [2]. `Cc1cc(F)c(-n2c(=O)n(C(C)(C)C)c(=O)n2C)cc1[S+]([O-])CC(F)(F)F` (stereo not drawn) [Example 95]: the “logP (HCOOH)” value came to 2.69 and the “logP (neutral)” value is reported as 2.65. `O=c1[nH]n(Cc2ccccc2)c(=O)n1C1CC1` [drawing 120 R1=benzyl R10=cyclopropyl, 1-benzyl-4-cyclopropyl-1,2,4-triazolidine-3,5-dione]: the chromatographic logP under setting [1] amounted to 1.21.

Take `Cc1cc(F)c(-n2c(=O)n(C(C)C)c(=O)n2CC(F)(F)F)cc1SCC(F)(F)F` [Example 146]: the “logP (HCOOH)” value worked out at 3.85 and the “logP (neutral)” value amounted to 3.90.

For the origin of these results see patent publication US9981928B2, “Aryl sulfide derivatives and aryl sulfoxide derivatives as acaricides and insecticides” (BAYER CROPSCIENCE AKTIENGESELLSCHAFT, priority 2013, dated 2018).
